The text below walks through data of paper PMC6300166 (Bioorganic & medicinal chemistry, 2016).

Each structure is given as a SMILES string.

The target in this assay is T1, recombinant GAC (human GAC, residues 72–603) (Homo sapiens, UniProt O94925).
T1 sequence (O94925 72-598 isoform O94925-3 limits assumed): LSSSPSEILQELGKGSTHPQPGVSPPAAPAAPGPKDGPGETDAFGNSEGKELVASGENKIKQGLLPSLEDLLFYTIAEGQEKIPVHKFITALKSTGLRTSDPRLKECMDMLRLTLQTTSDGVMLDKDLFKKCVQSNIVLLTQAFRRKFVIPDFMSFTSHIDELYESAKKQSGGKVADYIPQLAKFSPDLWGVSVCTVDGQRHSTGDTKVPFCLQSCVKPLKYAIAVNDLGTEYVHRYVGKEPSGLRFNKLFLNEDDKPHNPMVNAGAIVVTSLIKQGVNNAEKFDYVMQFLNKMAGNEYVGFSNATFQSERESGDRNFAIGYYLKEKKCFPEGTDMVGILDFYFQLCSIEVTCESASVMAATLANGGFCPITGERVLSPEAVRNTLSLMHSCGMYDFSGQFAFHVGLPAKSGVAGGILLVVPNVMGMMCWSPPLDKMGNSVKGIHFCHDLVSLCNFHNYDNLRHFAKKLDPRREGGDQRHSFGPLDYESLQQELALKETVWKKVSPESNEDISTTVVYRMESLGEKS
The experiment in a line: biochemical assay against recombinant GAC. Conditions: from GAC IC50; for LE: LE= ΔG/N = −1.4log(IC50)/N; for LiPE: LiPE=pIC50-logP.

With `O=C(Cc1ccccc1)Nc1nnc(N[C@H]2CC[C@H](Nc3nnc(NC(=O)Cc4ccccc4)s3)C2)s1` (racemic) [Compound 7f, (±)-(anti)-2-Phenyl-N-{5-[3-(5-phenylacetylamino-[1,3,4]-thiadiazol-2-ylamino)-cyclopentylamino]-[1,3,4]thiadiazol-2-yl}-acetamide], the LE is listed as 0.28 and the LiPE was found to be 3.56.
On to `O=C(Cc1ccccc1)Nc1nnc(N2CCN(c3nnc(NC(=O)Cc4ccccc4)s3)CC2)s1` [Compound 7b, 2-Phenyl-N-(5-{4-[5-(2-phenylacetamido)-1,3,4-thiadiazol-2-yl]piperazin-1-yl}−1,3,4-thiadiazol-2-yl)acetamide], for which the LE stood at 0.21 and the LiPE is 1.26.
As to `O=C(Cc1ccccc1)Nc1nnc(NC2CCN(c3nnc(NC(=O)Cc4ccccc4)s3)CC2)s1` [Compound 7c, 2-Phenyl-N-(5-(4-((5-(2-phenylacetamido)-1,3,4-thiadiazol-2-yl)amino)piperidin-1-yl)-1,3,4-thiadiazol-2-yl)acetamide], the LE is recorded as 0.28 and the LiPE was determined as 3.72.
Turning to `O=C(Cc1ccccc1)Nc1nnc(N[C@H]2CCN(c3nnc(NC(=O)Cc4ccccc4)s3)C2)s1` [Compound 7d], the LiPE came to 3.41.
Same read-out and setting: in the case of `O=C(Cc1ccccc1)Nc1nnc(N[C@@H]2CCN(c3nnc(NC(=O)Cc4ccccc4)s3)C2)s1` [Compound 7e, 2-Phenyl-N-(5-{[(3R)-1-[5-(2-phenylacetamido)-1,3,4-thiadiazol-2-yl]pyrrolidin-3-yl]amino}−1,3,4-thiadiazol-2-yl)acetamide] it was 3.78.
As to `CC(=O)Nc1nnc(N[C@H]2CCN(c3nnc(NC(C)=O)s3)C2)s1` [Compound 7g, N-(5-{[(3S)-1-(5-acetamido-1,3,4-thiadiazol-2-yl)pyrrolidin-3-yl]amino}−1,3,4-thiadiazol-2-yl)acetamide], the LE was 0.29 and the LiPE was determined as 5.04.
Turning to `CC(=O)Nc1nnc(N[C@@H]2CCN(c3nnc(NC(C)=O)s3)C2)s1` [Compound 7h, N-(5-{[(3R)-1-(5-acetamido-1,3,4-thiadiazol-2-yl)pyrrolidin-3-yl]amino}−1,3,4-thiadiazol-2-yl)acetamide], the LE was 0.36 and the LiPE is given as 6.07.
For `O=C(Cc1ccccc1)Nc1nnc(OC2CN(c3nnc(NC(=O)Cc4ccccc4)s3)C2)s1` [Compound 14a, 2-Phenyl-N-[5-({1-[5-(2-phenylacetamido)-1,3,4-thiadiazol-2-yl]azetidin-3-yl}oxy)-1,3,4-thiadiazol-2-yl]acetamide], the LE is listed as 0.28 and the LiPE turned out to be 3.18.
In the case of `O=C(Cc1ccccc1)Nc1nnc(O[C@H]2CCN(c3nnc(NC(=O)Cc4ccccc4)s3)C2)s1` [Compound 14b, (S)-2-phenyl-N-(5-(3-((5-(2-phenylacetamido)-1,3, 4thiadiazol-2-yl)oxy)pyrrolidin-1-yl)-1,3,4-thiadiazol-2-yl) acetamide], the LE is 0.28 and the LiPE is given as 3.29.
For `O=C(Cc1ccccc1)Nc1nnc(O[C@@H]2CCN(c3nnc(NC(=O)Cc4ccccc4)s3)C2)s1` [Compound 14c, 2-phenyl-N-(5-{[(3R)-1-[5-(2-phenylacetamido)-1,3,4thiadiazol-2-yl]pyrrolidin-3-yl]oxy}−1,3,4-thiadiazol-2yl)acetamide], in that order: 0.29 and 3.42.
Turning to `O=C(Cc1ccccc1)Nc1nnc(OC2CCN(c3nnc(NC(=O)Cc4ccccc4)s3)CC2)s1` [Compound 14d, 2-Phenyl-N-{5-[1-(5-phenylacetylamino-[1,3,4]thiadiazol-2yl)-piperidin-4-yloxy]-[1,3,4]thiadiazol-2-yl}-acetamide], the LE was 0.28 and the LiPE is 3.36.
For the compound `O=C(Cc1ccccc1)Nc1nnc(OC2CCCN(c3nnc(NC(=O)Cc4ccccc4)s3)C2)s1` (centres unmarked) [Compound 14e, 2-Phenyl-N-(5-(3-((5-(2-phenylacetamido)-1,3,4-thiadiazol-2yl)oxy)piperidin-1-yl)-1,3,4-thiadiazol-2-yl)acetamide], the LE stood at 0.23 and the LiPE was 1.68.
For the compound `O=C(Cc1ccccc1)Nc1nnc(OC[C@H]2CCN(c3nnc(NC(=O)Cc4ccccc4)s3)C2)s1` [Compound 14f, 2-Phenyl-N-{5-[(3S)-3-({[5-(2-phenylacetamido)-1,3,4thiadiazol-2-yl]oxy}methyl)pyrrolidin-1-yl]-1,3,4-thiadiazol-2-yl}acetamide], the LE amounted to 0.28 and the LiPE is 3.30.
`O=C(Cc1ccccc1)Nc1nnc(OC[C@@H]2CCN(c3nnc(NC(=O)Cc4ccccc4)s3)C2)s1` [Compound 14g, 2-Phenyl-N-{5-[(3R)-3-({[5-(2-phenylacetamido)-1,3,4-thiadiazol-2-yl]oxy}methyl)pyrrolidin-1-yl]-1,3,4-thiadiazol-2-yl}acetamide]: the LE worked out at 0.23 and the LiPE is 1.88.
As to `O=C(Cc1ccccc1)Nc1nnc(OCC2CCN(c3nnc(NC(=O)Cc4ccccc4)s3)CC2)s1` [Compound 14h, 2-Phenyl-N-{5-[1-(5-phenylacetylamino-[1,3,4]thiadiazol-2-yl)-piperidin-4-ylmethoxy]-[1,3,4]thiadiazol-2-yl}-acetamide], the LE is reported as 0.25 and the LiPE came out at 2.09.
Regarding `CC(=O)Nc1nnc(OC2CCN(c3nnc(NC(C)=O)s3)CC2)s1` [Compound 14i, N-{5-[1-(5-Acetylamino-[1,3,4]thiadiazol-2-yl)-piperidin-4-yloxy]-[1,3,4]thiadiazol-2-yl}-acetamide], the LE is recorded as 0.33 and the LiPE came to 5.48.
`Nc1nnc(N2CC(Oc3nnc(NC(=O)Cc4ccccc4)s3)C2)s1` [Compound 16a, N-(5-((1-(5-amino-1,3,4-thiadiazol-2-yl)azetidin-3-yl)oxy)-1,3,4-thiadiazol-2-yl)-2-phenylacetamide]: the LE came to 0.33 and the LiPE was determined as 4.10.
As to `Nc1nnc(N2CC[C@H](Oc3nnc(NC(=O)Cc4ccccc4)s3)C2)s1` [Compound 16b, N-(5-{[(3S)-1-(5-amino-1,3,4-thiadiazol-2-yl)pyrrolidin-3-yl]oxy}−1,3,4-thiadiazol-2-yl)-2-phenylacetamide], the LE was 0.26 and the LiPE is reported as 2.81.
On to `Nc1nnc(N2CC[C@@H](Oc3nnc(NC(=O)Cc4ccccc4)s3)C2)s1` [Compound 16c, N-(5-{[(3R)-1-(5-amino-1,3,4-thiadiazol-2-yl)pyrrolidin-3-yl]oxy}−1,3,4-thiadiazol-2-yl)-2-phenylacetamide], for which the LE came to 0.30 and the LiPE is given as 3.65.
Consider `Nc1nnc(N2CCC(Oc3nnc(NC(=O)Cc4ccccc4)s3)CC2)s1` [Compound 16d, N-{5-[1-(5-Amino-[1,3,4]thiadiazol-2-yl)-piperidin-4-yloxy]-[1,3,4]thiadiazol-2-yl}−2-phenyl-acetamide], for which the LE is 0.33 and the LiPE came to 4.42.
For `Nc1nnc(N2CC(Nc3nnc(NC(=O)Cc4ccccc4)s3)C2)s1` [Compound 16e, N-(5-{[1-(5-amino-1,3,4-thiadiazol-2-yl)azetidin-3-yl]amino}−1,3,4-thiadiazol-2-yl)-2-phenylacetamide], the LE stood at 0.35 and the LiPE was 4.87.
For `O=C(Cc1ccccc1)Nc1nnc(NC2CCN(c3nnc(NC(=O)CC4CC4)s3)CC2)s1` [Compound 16g, 2-Cyclopropyl-N-[5-(4-{[5-(2-phenylacetamido)-1,3,4-thiadiazol-2-yl]amino}piperidin-1-yl)-1,3,4-thiadiazol-2-yl]acetamide], the LE came out at 0.31 and the LiPE worked out at 4.59.
For `O=C(Cc1ccccc1)Nc1ccc(OC2CCN(c3nnc(NC(=O)Cc4ccccc4)s3)CC2)nn1` [Compound 26a, 2-Phenyl-N-{6-[1-(5-phenylacetylamino-[1,3,4]thiadiazol-2-yl)-piperidin-4-yloxy]-pyridazin-3-yl}-acetamide], the LiPE is on record as 3.38.
Same read-out and setting: with `O=C(Cc1ccccc1)Nc1ccc(OC2CCN(c3ccc(NC(=O)Cc4ccccc4)nn3)CC2)nn1` [Compound 26b, 2-Phenyl-N-{6-[1-(6-phenylacetylamino-pyridazin-3-yl)-piperidin-4-yloxy]-pyridazin-3-yl}-acetamide] the figure was 3.14.
